# Experimental data reported in patent US20240294465A1, “NOVEL ANTI-FIBROTIC DRUGS” (HELMHOLTZ ZENTRUM MUNCHEN - DEUTSCHES FORSCHUNGSZENTRUM FUR …, priority 2021, published 2024).
# System: profibrotic gene signatures in phLFs+TGFβ1
# Assay: Microarray transcriptomics and UMAP regulation pattern clustering in phLFs
# Format: cell-based, human
# Settings: phLFs+TGFβ1+example 84
# Procedure: Total RNA was isolated PEQGold Total RNA Kit (PeqLab) according to the manufacturer's instructions including gDNA elimination. The Agilent 2100 Bioanalyzer was used to assess RNA quality and RNA with RIN>7 was used for microarray analysis. Total RNA (150 ng) was amplified using the WT PLUS Reagent Kit (Thermo Fisher Scientific Inc., Waltham, USA). Amplified cDNA was hybridized on Human ClariomS arrays (Thermo Fisher Scientific). Staining and scanning (GeneChip Scanner 3000 7G) was done according to manufacturer's instructions. Transcriptome Analysis Console (TAC; version 4.0.0.25; Thermo Fisher Scientific) was used for quality control and to obtain annotated normalized SST-RMA gene-level data. Statistical analyses were performed by utilizing the statistical programming environment R (R Development Core Team Ref1). Genewise testing for differential expression was done employing the paired limma t-test and Benjamini-Hochberg multiple testing correction (FDR<10%). To reduce background, gene sets were filtered using DABG p-values<0.05 in at least one sample per pair and in at least two of three pairs per analysis. […] Then, clusters of genes were extracted. Gene/protein interactions were visualized using the String Database (www.stringdb.org).
compound,measurement,value
"CCCCOc1ccccc1NC(=O)/C=C/c1ccc(OC)c(OC)c1 [Example 84, (E)-N-(2-butoxyphenyl)-3-(3,4-dimethoxyphenyl)acrylamide]","gene-set enrichment analysis (collagen formation, extracellular matrix organization, smooth-muscle contraction)",negative enrichment for profibrotic gene signatures
